Results reported in publication PMC12951568, “Identifying Structural Factors Governing the Photodynamic Activity of Phthalocyanines” (Journal of Medicinal Chemistry, 2026).
Where two headings read alike, the source gives them in different places.

Key:
[1] = Fluorescence quantum yield, comparative method; type: physicochemical; conditions: in DMF; ZnPc as reference
Method: The fluorescence quantum yields (ΦF) were determined by a comparative method with ZnPc as the reference (ΦF = 0.32 in THF). The ΦF values were calculated using the following formula: ϕFS=ϕFR(F^S/F^R)(1−10^−A^R/1−10^−A^S)(η^S/η^R)^2 where F is the integrated area under the emission spectrum and A is the absorbance at the excitation wavelength. Superscripts R and S indicate the reference and sample, respectively. η stands for the refractive index of the solvent. Absorption in the Q-band was kept below 0.05 to eliminate the inner filter effect. Excitation wavelengths were the same as those used for emission spectra (see above). The emission wavelengths were set to their emission maxima to avoid exceeding the detector limit with stimated error ± 15%.

[2] = Fluorescence lifetime in DMF; type: physicochemical
Description: 1 Photophysical Data of Investigated Derivatives in DMF ^a | column: τF1/ns; τF2/ns

[3] = Absorption and fluorescence emission spectra in DMF; type: physicochemical; conditions: for ε, extinction coefficient / λA, absorption maximum in the Q-band / λF, fluorescence emission maximum: in DMF
Method: An absorption spectrum of 2.475 mL of solvent (water, DMF, or PBS) was taken (i.e., absorption spectrum of baseline); then, 25 μL of stock solution was added to reach the final concentration of 1 μM in the cuvette, and the absorption and emission spectra were taken. Baseline of the solvent was subtracted from the obtained absorption spectrum to get the final absorption spectrum of the sample.

[4] = system: HeLa (human cervical carcinoma); conditions: ref number not given, cited from earlier work
[5] = Quantum yield of singlet oxygen production, comparative method with DPBF scavenger; type: physicochemical; conditions: in DMF, ZnPc as reference
Method: Eight μL of the 100 μM stock solution of the dye in DMF (or DMF + water or water; see above) was added. A xenon lamp (100 W, ozone free XE DC short arc lamp, New port) was used to irradiate the sample while stirring. The incident light was filtered through a water filter (6 cm) and cut off filter OG530 eliminating heat and light under 523 nm, respectively. […] The decrease of DPBF in solution with irradiation time was monitored at 415 nm. The values of ΦΔ of the dyes were calculated by the following equation: φΔS=φΔ[…] is the slope of the plot of the dependence of ln([…] 0 and A t being the absorbances of the DPBF at 415 nm before irradiation and after irradiation time t, respectively. I aT is the total amount of light absorbed by the dye sample. Superscripts R and S indicate the reference and sample, respectively. I aT is calculated as a sum of intensities of the absorbed light I a at wavelengths from 523 to 850 nm (step 0.5 nm). Light under 523 nm is completely filtered by an OG530 filter, and light above 850 nm is not absorbed by the studied dye sample. I a at a given wavelength is calculated using Beer-Lambert'[…]) where I 0 is transmittance of the filter at the given wavelength and A is the absorbance of the dye at this wavelength. All experiments were performed three times, and the data presented is the mean value of the three obtained results with estimated error ± 10%.

[6] = molecular target: bovine serum albumin (BSA) (Bos taurus, UniProt P02769); assay: Interaction with bovine serum albumin (absorption and emission spectra in PBS); type: binding; conditions: 1 μM Pc in PBS, BSA 17.5, 35 and 100 μM
[7] = Log P, partition between n-octanol and PBS; type: physicochemical
Method: 400 μL portion of n-octanol and 400 μL of PBS buffer were mixed in a plastic Eppendorf vial. Then, 20 μL of the 100 μM stock solution of the sample (see above) was added to this mixture, vortexed for 5 min at rt, and then centrifuged for 10 min (10 000 rpm, rt). 50 μL of each of these layers was taken into 2.5 mL of DMF in a quartz cuvette, and their emission spectra (excitation wavelengths in Table ) were recorded. The log P value was then computed using the area under the curve of the emission spectra of n-octanol (F oct) and PBS buffer (F PBS) layers as follows: logP=log(Foct/FPBS) Triplicate measurements were performed, and the data reported are the mean of the obtained results.

[8] = partition coefficient between 1-octanol and PBS

Chain of bovine serum albumin (BSA) (P02769 25-607): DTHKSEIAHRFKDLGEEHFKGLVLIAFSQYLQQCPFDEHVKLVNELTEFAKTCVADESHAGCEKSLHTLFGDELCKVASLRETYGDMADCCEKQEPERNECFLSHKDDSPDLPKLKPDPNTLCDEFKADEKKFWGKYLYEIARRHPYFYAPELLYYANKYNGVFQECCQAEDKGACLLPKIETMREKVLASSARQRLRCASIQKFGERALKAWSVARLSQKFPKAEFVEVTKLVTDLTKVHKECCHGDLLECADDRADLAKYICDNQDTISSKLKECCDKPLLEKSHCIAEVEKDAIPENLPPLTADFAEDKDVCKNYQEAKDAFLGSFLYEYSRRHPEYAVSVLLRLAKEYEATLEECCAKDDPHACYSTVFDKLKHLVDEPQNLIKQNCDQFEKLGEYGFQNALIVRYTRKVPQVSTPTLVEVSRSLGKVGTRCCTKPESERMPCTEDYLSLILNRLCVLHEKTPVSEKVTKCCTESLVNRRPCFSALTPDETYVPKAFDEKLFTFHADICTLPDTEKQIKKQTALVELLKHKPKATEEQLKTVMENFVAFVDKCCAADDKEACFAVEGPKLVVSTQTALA

| SMILES | ΦF, fluorescence quantum yield [1] | τF1, fluorescence lifetime (relative amplitude in brackets) [2] | τF2, fluorescence lifetime (relative amplitude in brackets) [2] | ε, extinction coefficient [3] | λA, absorption maximum in the Q-band [3] | λF, fluorescence emission maximum [3] | EC50 ([4]; same irradiation conditions, previously published per Table 2, read-out: EC50 (HeLa)) | ΦΔ, quantum yield of singlet oxygen production [5] | Interaction with BSA: disaggregation/monomerization and changes in absorption and fluorescence emission spectra [6] | Log P [7, 8] | blueshift of the Q-band vs corresponding Pc analogue ([3]; pyrazine analogs vs A4Zn and N6Zn, DMF) | Log P [7] | quenching of excited states upon BSA addition (decrease in Q-band maximum and fluorescence intensity) [6] | EC50 ([4]; 12 h incubation, Xe-lamp 15 min, λ > 570 nm, 11.2 J/cm^2, mean ± SD, determined previously under the same conditions at the same workplace and published, read-out: EC50 (nM) HeLa) |
| --- | --- | --- | --- | --- | --- | --- | --- | --- | --- | --- | --- | --- | --- | --- |
| Cc1cc(OCc2cn(CCOCCOCCO)nn2)c(Oc2cc3c(cc2Oc2c(OCc4cn(CCOCCOCCO)nn4)cc(C)cc2OCc2cn(CCOCCOCCO)nn2)C2=Nc4c5cc(Oc6c(OCc7cn(CCOCCOCCO)nn7)cc(C)cc6OCc6cn(CCOCCOCCO)nn6)c(Oc6c(OCc7cn(CCOCCOCCO)nn7)cc(C)cc6OCc6cn(CCOCCOCCO)nn6)cc5c5[n]4[Zn][n]4c(c6cc(Oc7c(OCc8cn(CCOCCOCCO)nn8)cc(C)cc7OCc7cn(CCOCCOCCO)nn7)c(Oc7c(OCc8cn(CCOCCOCCO)nn8)cc(C)cc7OCc7cn(CCOCCOCCO)nn7)cc6c4=NC4=NC(=N5)c5cc(Oc6c(OCc7cn(CCOCCOCCO)nn7)cc(C)cc6OCc6cn(CCOCCOCCO)nn6)c(Oc6c(OCc7cn(CCOCCOCCO)nn7)cc(C)cc6OCc6cn(CCOCCOCCO)nn6)cc54)=NC3=N2)c(OCc2cn(CCOCCOCCO)nn2)c1 [N6Zn] | 0.26 | 1.04 (3%) ns | 3.17 (97%) ns | 237 520 M^–1cm^–1 | 681 nm | 690 nm | 69700 nM | 0.46 | – | – | – | – | – | – |
| O=S(=O)([O-])c1ccc(Oc2ccc3c(c2)C2=Cc4c5ccc(Oc6ccc(S(=O)(=O)[O-])c7cccnc67)cc5c5[n]4[Zn][n]4c(c6ccc(Oc7ccc(S(=O)(=O)[O-])c8cccnc78)cc6c4=CC3=N2)=CC2=NC(=C5)c3ccc(Oc4ccc(S(=O)(=O)[O-])c5cccnc45)cc32)c2ncccc12.[Na+].[Na+].[Na+].[Na+] [A6Zn] | 0.28 | 3.14 ns | – | 122 420 M^–1cm^–1 | 681 nm | 692 nm | – | 0.58 | partial | –2.89 | – | – | – | – |
| Cc1cc(OCc2cn(CCOCCOCCO)nn2)c(Oc2nc3c(nc2Oc2c(OCc4cn(CCOCCOCCO)nn4)cc(C)cc2OCc2cn(CCOCCOCCO)nn2)C2=Nc4c5nc(Oc6c(OCc7cn(CCOCCOCCO)nn7)cc(C)cc6OCc6cn(CCOCCOCCO)nn6)c(Oc6c(OCc7cn(CCOCCOCCO)nn7)cc(C)cc6OCc6cn(CCOCCOCCO)nn6)nc5c5[n]4[Zn][n]4c(c6nc(Oc7c(OCc8cn(CCOCCOCCO)nn8)cc(C)cc7OCc7cn(CCOCCOCCO)nn7)c(Oc7c(OCc8cn(CCOCCOCCO)nn8)cc(C)cc7OCc7cn(CCOCCOCCO)nn7)nc6c4=NC4=NC(=N5)c5nc(Oc6c(OCc7cn(CCOCCOCCO)nn7)cc(C)cc6OCc6cn(CCOCCOCCO)nn6)c(Oc6c(OCc7cn(CCOCCOCCO)nn7)cc(C)cc6OCc6cn(CCOCCOCCO)nn6)nc54)=NC3=N2)c(OCc2cn(CCOCCOCCO)nn2)c1 [N7Zn] | 0.18 | 0.74 (5%) ns | 2.45 (95%) ns | 195 490 M^–1cm^–1 | 629 nm | 641 nm | – | 0.58 | – | – | 35 nm | –1.60 | – | – |
| C[n+]1cccc(Oc2ccc3c(c2)C2=NC3=Nc3c4cc(Oc5ccc[n+](C)c5)ccc4c4[n]3[Zn][n]3c(c5ccc(Oc6ccc[n+](C)c6)cc5c3=NC3=NC(=N4)c4cc(Oc5ccc[n+](C)c5)ccc43)=N2)c1 [C5Zn] | – | – | – | – | – | – | – | – | slight decrease in the absorption band (without a shift in the spectrum) but was accompanied by a slight increase in the fluorescence intensity | – | – | – | – | – |
| O=C([O-])c1cc(C(=O)[O-])cc(-c2nc3c(nc2-c2cc(C(=O)[O-])cc(C(=O)[O-])c2)C2=Nc4c5nc(-c6cc(C(=O)[O-])cc(C(=O)[O-])c6)c(-c6cc(C(=O)[O-])cc(C(=O)[O-])c6)nc5c5[n]4[Zn][n]4c(c6nc(-c7cc(C(=O)[O-])cc(C(=O)[O-])c7)c(-c7cc(C(=O)[O-])cc(C(=O)[O-])c7)nc6c4=NC4=NC(=N5)c5nc(-c6cc(C(=O)[O-])cc(C(=O)[O-])c6)c(-c6cc(C(=O)[O-])cc(C(=O)[O-])c6)nc54)=NC3=N2)c1.[Na+].[Na+].[Na+].[Na+].[Na+].[Na+].[Na+].[Na+].[Na+].[Na+].[Na+].[Na+].[Na+].[Na+].[Na+].[Na+] [A5Zn] | 0.03 | – | – | 138 740 M^–1cm^–1 | 659 nm | 675 nm | – | 0.21 | slight bathochromic shift in the Q-band accompanied by partial quenching of the excited states | –3.27 | – | – | significant | 5700 ± 1100 nM |
